The target in one experiment is T1, NLRP3 inflammasome (Homo sapiens, UniProt Q96P20).
T1 construct: endogenous in cells; host or cells: THP-1 monocytic cells
Briefly: IL-1β secretion assay (NLRP3 IC50) in LPS-primed, nigericin-activated THP-1 cells, HTRF. It counts as cell-based. The conditions noted are these: monocytic THP-1 cells; LPS 10 ng/mL 3 h priming, then compound + nigericin 10 μM 2 h; relative IC50, 10 concentrations, geometric mean. The procedure, abridged:
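THP-1 cells primed with LPS 10 ng/mL for 3 h at 37° C., then compound (10-point 1:3 dilution, 0.1% DMSO) added with 10 μM nigericin for 2 h. Supernatant IL-1β measured by HTRF; relative IC50 from a 4-parameter logistic fit, reported as geometric mean.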

Experiment [1] deals with NF-kB pathway (TNF-α secretion by THP-1 cells). As to the kind of experiment: TNF-α secretion assay in LPS-stimulated THP-1 cells, Lumit immunoassay. Format: cell-based, human. The conditions noted are these: Homo sapiens, THP-1, 3 h, monocytic THP-1 cells, LPS 10 ng/mL, relative IC50, 10 concentrations, geometric mean. The procedure, abridged:
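THP-1 monocytes in RPMI with 5% FBS were treated with compound, then stimulated with 10 ng/mL LPS for 3 h. Secreted TNF-α was measured in-plate by Lumit immunoassay. Relative IC50 came from 10-concentration curves fitted with a 4-parameter logistic model, reported as geometric mean.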

pIC50: −log10 of the molar value.

T1 sequence (Q96P20 whole entry): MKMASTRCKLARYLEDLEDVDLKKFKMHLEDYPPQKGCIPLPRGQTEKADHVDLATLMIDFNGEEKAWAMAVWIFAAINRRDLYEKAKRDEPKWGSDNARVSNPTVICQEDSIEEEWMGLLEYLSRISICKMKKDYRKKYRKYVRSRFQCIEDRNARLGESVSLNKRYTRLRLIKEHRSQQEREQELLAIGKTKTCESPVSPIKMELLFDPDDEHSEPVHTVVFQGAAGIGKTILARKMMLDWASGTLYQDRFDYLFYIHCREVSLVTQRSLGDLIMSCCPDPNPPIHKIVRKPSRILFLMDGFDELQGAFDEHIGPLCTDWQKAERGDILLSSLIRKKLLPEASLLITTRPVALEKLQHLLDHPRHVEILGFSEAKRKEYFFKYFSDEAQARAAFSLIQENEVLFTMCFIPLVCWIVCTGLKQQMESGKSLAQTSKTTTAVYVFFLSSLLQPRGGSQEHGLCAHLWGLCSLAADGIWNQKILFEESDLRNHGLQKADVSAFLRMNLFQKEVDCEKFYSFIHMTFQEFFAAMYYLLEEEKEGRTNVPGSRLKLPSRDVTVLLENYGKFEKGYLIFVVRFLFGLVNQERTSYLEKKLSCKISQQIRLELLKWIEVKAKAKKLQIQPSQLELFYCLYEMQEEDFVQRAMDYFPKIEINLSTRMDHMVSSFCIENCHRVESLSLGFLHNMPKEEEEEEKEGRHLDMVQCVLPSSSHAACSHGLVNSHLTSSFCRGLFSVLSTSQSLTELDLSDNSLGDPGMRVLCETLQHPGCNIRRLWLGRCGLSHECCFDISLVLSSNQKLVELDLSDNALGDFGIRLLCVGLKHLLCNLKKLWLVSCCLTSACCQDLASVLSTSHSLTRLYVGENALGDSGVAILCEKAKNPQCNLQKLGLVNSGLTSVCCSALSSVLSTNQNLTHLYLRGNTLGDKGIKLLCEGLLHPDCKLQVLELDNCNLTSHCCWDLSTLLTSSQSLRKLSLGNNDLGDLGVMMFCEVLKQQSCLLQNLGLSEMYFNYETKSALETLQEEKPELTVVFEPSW

For the compound `Cc1cc(N2CC[C@@H]3CCN(C)C[C@@H]32)nnc1-c1ccc(C(F)(F)F)cc1O` (single isomer, unassigned) [Example 366], the values for the pIC50 (at NLRP3 inflammasome; in experiment [1]) were 7.60 and < 5.00, respectively.

Regarding `CC(=O)N1CC[C@H]2OCCN(c3ccc(-c4c(C)cc(Cl)cc4O)nn3)[C@H]2C1` (single isomer, unassigned) [Example 397], the pIC50 – broadly, the IC50 on a negative log10 scale, so that one unit is a factor of ten – is 7.64 on NLRP3 inflammasome and < 5.00 in experiment [1].

As for `CN(C)C[C@@H]1CCN(c2ccc(-c3c(O)cc(Cl)cc3Cl)nn2)C1` [Example 40, 3,5-dichloro-2-[6-[(3S)-3-[(dimethylamino)methyl]pyrrolidin-1-yl]pyridazin-3-yl]phenol], the pIC50 is 6.38 on NLRP3 inflammasome and < 5.00 in experiment [1].

With `Cc1cc(C)c(-c2ccc(N3CCC[C@]4(C3)C[C@H](O)C4)nn2)c(O)c1` (single isomer, unassigned; isomer 1) [Example 175, 6-[6-(2-hydroxy-4,6-dimethyl-phenyl)pyridazin-3-yl]-6-azaspiro[3.5]nonan-2-ol Isomer 1], the results for the pIC50 (at NLRP3 inflammasome; in experiment [1]) were 6.28 and < 5.00, respectively.

Regarding `Cc1cc(C)c(-c2ccc(N3CCCc4cc(O)ccc43)nn2)c(O)c1` [Example 230, 1-[6-(2-hydroxy-4,6-dimethyl-phenyl)pyridazin-3-yl]-3,4-dihydro-2H-quinolin-6-ol], the results for the pIC50 (on NLRP3 inflammasome; in experiment [1]) were 6.25 and 5.04, respectively.

For `CN1CC[C@H]2CCN(c3ccc(-c4c(O)cccc4C(F)(F)F)nn3)[C@H]2C1` (single isomer, unassigned) [Example 427], the pIC50 was 8.70 on NLRP3 inflammasome and < 5.00 in experiment [1].

As to `CC(=O)NC[C@@H]1CCCN(c2ccc(-c3c(O)cc(Cl)cc3Cl)nn2)C1` [Example 58, N-[[(3S)-1-[6-(2,4-dichloro-6-hydroxy-phenyl)pyridazin-3-yl]-3-piperidyl]methyl]acetamide], the pIC50 on NLRP3 inflammasome is 7.19; in experiment [1], < 5.00.

`COC[C@H]1CCCN1c1ccc(-c2c(C)cc(C(F)(F)F)cc2O)nn1` [Example 14, 2-[6-[(2R)-2-(methoxymethyl)pyrrolidin-1-yl]pyridazin-3-yl]-3-methyl-5-(trifluoromethyl)phenol]: the pIC50 was 6.22 on NLRP3 inflammasome and < 5.00 in experiment [1].

For the compound `CN1CC[C@H]2CCN(c3ccc(-c4c(O)cccc4C(F)(F)F)nn3)[C@H]2C1` (racemic) [Example 389, 2-[6-[rac-(3aS,7aR)-6-methyl-3,3a,4,5,7,7a-hexahydro-2H-pyrrolo[2,3-c]pyridin-1-yl]pyridazin-3-yl]-3-(trifluoromethyl)phenol], the pIC50 on NLRP3 inflammasome was 8.70; in experiment [1] it was < 5.00.

Regarding `CCN1CC[C@H]2OCCN(c3cc(C)c(-c4ccc(C(F)(F)F)cc4O)nn3)[C@H]2C1` [Example 436, 2-[6-[(4aS,8aR)-6-ethyl-3,4a,5,7,8,8a-hexahydro-2H-pyrido[4,3-b][1,4]oxazin-4-yl]-4-methyl-pyridazin-3-yl]-5-(trifluoromethyl)phenol], the pIC50 at NLRP3 inflammasome was 8.70; in experiment [1], < 5.00.

For `CC(=O)NC[C@H]1CCCN(c2ccc(-c3c(O)cc(Cl)cc3Cl)nn2)C1` [Example 57, N-[[(3R)-1-[6-(2,4-dichloro-6-hydroxy-phenyl)pyridazin-3-yl]-3-piperidyl]methyl]acetamide], the pIC50 on NLRP3 inflammasome is 6.61; in experiment [1], < 5.00.

`COc1cc(C)c(-c2nnc(N3CCO[C@H](CO)C3)cc2C)c(O)c1` [Example 119, 2-[6-[(2S)-2-(hydroxymethyl)morpholin-4-yl]-4-methyl-pyridazin-3-yl]-5-methoxy-3-methyl-phenol]: the pIC50 is 6.25 at NLRP3 inflammasome and < 5.00 in experiment [1].

Turning to `Oc1cc(Cl)cc(Cl)c1-c1ccc(N2CCO[C@H](CF)C2)nn1` (single isomer, unassigned) [Example 238], the pIC50 on NLRP3 inflammasome was 7.33; in experiment [1] it was 5.37.

Turning to `Cc1cc(Cl)cc(O)c1-c1ccc(N2CCO[C@H](CO)C2)nn1` [Example 63, 5-chloro-2-[6-[(2S)-2-(hydroxymethyl)morpholin-4-yl]pyridazin-3-yl]-3-methyl-phenol], the pIC50 at NLRP3 inflammasome is 8.22; in experiment [1], < 5.00.

With `Cc1ccc(-c2nnc(N3CCO[C@H](CO)C3)c(C)c2C)c(O)c1` [Example 80, 2-[6-[(2S)-2-(hydroxymethyl)morpholin-4-yl]-4,5-dimethyl-pyridazin-3-yl]-5-methyl-phenol], the pIC50 at NLRP3 inflammasome is 6.68; in experiment [1] it was < 5.00.

In the case of `Cc1cc(C(F)(F)F)cc(O)c1-c1ccc(N2CCO[C@@H](CNC(=O)C(C)C)C2)nn1` [Example 276, N-[[(2S)-4-[6-[2-hydroxy-6-methyl-4-(trifluoromethyl)phenyl]pyridazin-3-yl]morpholin-2-yl]methyl]-2-methylpropanamide], the pIC50 is 6.29 at NLRP3 inflammasome and < 5.00 in experiment [1].

Consider `CC(=O)N1CC[C@@H]2OCCN(c3ccc(-c4c(C)cc(Cl)cc4O)nn3)[C@@H]2C1` (racemic) [Example 222, 1-[rac-(4aR,8aS)-4-[6-(4-chloro-2-hydroxy-6-methyl-phenyl)pyridazin-3-yl]-3,4a,5,7,8,8a-hexahydro-2H-pyrido[4,3-b][1,4]oxazin-6-yl]ethanone], for which the results for the pIC50 (at NLRP3 inflammasome; in experiment [1]) were 7.38 and < 5.00, respectively.

Regarding `CCc1cc(Cl)cc(O)c1-c1ccc(N2CCO[C@@H]3CCN(C(C)=O)C[C@@H]32)nn1` [Example 381, 1-[(4aS,8aR)-4-[6-(4-chloro-2-ethyl-6-hydroxy-phenyl)pyridazin-3-yl]-3,4a,5,7,8,8a-hexahydro-2H-pyrido[4,3-b][1,4]oxazin-6-yl]ethanone], the pIC50 at NLRP3 inflammasome is 8.52; in experiment [1] it was < 5.00.

As to `Cc1cc(Cl)cc(O)c1-c1ccc(N2CCO[C@H]3CCN(C)C[C@H]32)nn1` (racemic) [Example 224, 5-chloro-3-methyl-2-[6-[rac-(4aR,8aS)-6-methyl-3,4a,5,7,8,8a-hexahydro-2H-pyrido[4,3-b][1,4]oxazin-4-yl]pyridazin-3-yl]phenol], the pIC50 at NLRP3 inflammasome is 9.00; in experiment [1] it was < 5.00.

In the case of `Cc1ccc(-c2nnc(N3CCO[C@H](CO)C3)cc2C(C)C)c(O)c1` [Example 74, 2-[6-[(2S)-2-(hydroxymethyl)morpholin-4-yl]-4-isopropyl-pyridazin-3-yl]-5-methyl-phenol], the pIC50 is 6.39 on NLRP3 inflammasome and < 5.00 in experiment [1].

With `Cc1cc(C)c(-c2ccc(N3CCO[C@H]4CCNC[C@H]43)nn2)c(O)c1` (racemic) [Example 195, 3,5-dimethyl-2-[6-[rac-(4aR,8aS)-2,3,4a,5,6,7,8,8a-octahydropyrido[4,3-b][1,4]oxazin-4-yl]pyridazin-3-yl]phenol], the pIC50 at NLRP3 inflammasome was 7.85; in experiment [1] it was < 5.00.

On to `Cc1cccc(O)c1-c1ccc(N2CCO[C@H](CO)C2)nn1` [Example 56, 2-[6-[(2S)-2-(hydroxymethyl)morpholin-4-yl]pyridazin-3-yl]-3-methyl-phenol], for which the pIC50 is 6.95 at NLRP3 inflammasome and < 5.00 in experiment [1].

For the compound `Cc1ccc(-c2nnc(N3CC[C@@H]4CCN(C)C[C@@H]43)cc2C)c(O)c1` (single isomer, unassigned) [Example 374], the pIC50 on NLRP3 inflammasome is 7.38; in experiment [1] it was < 5.00.

Take `COC[C@H]1CN(c2ccc(-c3c(O)cc(Cl)cc3Cl)nn2)CCO1` [Example 33, 3,5-dichloro-2-[6-[(2R)-2-(methoxymethyl)morpholin-4-yl]pyridazin-3-yl]phenol]: the pIC50 was 6.62 on NLRP3 inflammasome and < 5.00 in experiment [1].

Consider `Cc1cc(Cl)cc(O)c1-c1ccc(N2CC[C@H](CO)C2)nn1` [Example 127, 5-chloro-2-[6-[(3S)-3-(hydroxymethyl)pyrrolidin-1-yl]pyridazin-3-yl]-3-methyl-phenol], for which the pIC50 was 6.90 on NLRP3 inflammasome and < 5.00 in experiment [1].

With `Cc1cc(C)c(-c2ccc(N3CCc4c(O)cccc43)nn2)c(O)c1` [Example 240, 1-[6-(2-hydroxy-4,6-dimethyl-phenyl)pyridazin-3-yl]indolin-4-ol], the figures for the pIC50 (at NLRP3 inflammasome; in experiment [1]) were 6.38 and < 5.00, respectively.

In the case of `Cc1cc(C)c(-c2ccc(N3CCC(O)CC3)nn2)c(O)c1` [Example 1, 1-[6-(2-hydroxy-4,6-dimethyl-phenyl)pyridazin-3-yl]piperidin-4-ol], the pIC50 is 6.39 at NLRP3 inflammasome and < 5.00 in experiment [1].

Consider `Cc1cc(C(F)(F)F)cc(O)c1-c1ccc(N2CCO[C@H](CF)C2)nn1` (single isomer, unassigned) [Example 284], for which the negative logarithm of the IC50 (pIC50) at NLRP3 inflammasome is 7.06; in experiment [1], < 5.00.

As for `Cc1cc(C(F)(F)F)cc(O)c1-c1ccc(N2CC[C@H]3CCN(C)C[C@H]32)nn1` [Example 391, 2-[6-[(3aR,7aS)-6-methyl-3,3a,4,5,7,7a-hexahydro-2H-pyrrolo[2,3-c]pyridin-1-yl]pyridazin-3-yl]-3-methyl-5-(trifluoromethyl)phenol], the pIC50 at NLRP3 inflammasome was 7.51; in experiment [1], < 5.00.

As for `Cc1cc(C)c(-c2ccc(N3CCOC(CF)C3)nn2)c(O)c1` (centres unmarked) [Example 174, 2-[6-[2-(fluoromethyl)morpholin-4-yl]pyridazin-3-yl]-3,5-dimethyl-phenol], the pIC50 on NLRP3 inflammasome was 6.77; in experiment [1], < 5.00.

In the case of `Cc1cc(C(F)(F)F)cc(O)c1-c1ccc(N2CCO[C@@H]3CCNC[C@@H]32)nn1` (single isomer, unassigned) [Example 252], the figures for the pIC50 (at NLRP3 inflammasome; in experiment [1]) were 6.34 and < 5.00, respectively.

Values taken from patent US20240360151A1 (SANOFI, priority 2023, published 2024).
